# Assay results: US11976075B2, “Inhibitors of the MYST family of lysine acetyl transferases” (Isosterix, Inc., priority 2022, dated 2024)
# Like-named read-outs stand apart in the source and are kept apart here.
# Columns and labels:
# ZR-75-1 = assay: In Vitro Cancer Cell Assay (cell viability, Cell Titer Glow, 10 days); format: cell-based; details: Homo sapiens; ZR-75-1 cells; Table 2
# Method: ZR-75-1 and T47D are breast cancer cell lines containing high KAT6A protein expression. Proliferation of these cell lines are inhibited upon treatment with a KAT6A inhibitor. Cell line MCF7 is used as a negative control. MCF7 cells have a low KAT6A protein expression and are not growth inhibited upon treatment with KAT6A inhibitors. WM-1119 is used as a positive control.
# 1500 cells are seeded per well and incubated overnight at 37° C. and 5% CO2. Cells are treated after 24 hours with a compound (stock solution, 10 mM in DMSO) with 9-10 dilutions and a final DMSO concentration of 0.5%. […] Test compounds are tested like WM-1119. Plates are incubated at 37° C. and 5% CO2 for 10 days. Media is replenished after every alternate day. At day 10, Cell Titer Glow is added to the wells and luminescence is recorded after 10 min incubation. Data are normalized to 100% with DMSO control and subtracting media blank. Cell viability is of the test compounds is measured.
# The above procedure can be followed for determining activity in additional cell lines, for example, ZR-75-1, T47D, CHAGOK1 and other cell lines that have high expression of KAT6A. The number of cells used will be optimized based on growth rate of the individual cell lines.
# [1] = target: T1, Recombinant KAT6A/MOZ (488-778) protein (Homo sapiens, UniProt Q92794); assay: Kat6a AlphaLISA Inhibition Screening Assay; format: biochemical
# T1 construct: Recombinant KAT6A/MOZ (488-778) protein (Active motif, Catalog #81223); purchased Active Motif 81223
# T1 sequence (Q92794 488-778): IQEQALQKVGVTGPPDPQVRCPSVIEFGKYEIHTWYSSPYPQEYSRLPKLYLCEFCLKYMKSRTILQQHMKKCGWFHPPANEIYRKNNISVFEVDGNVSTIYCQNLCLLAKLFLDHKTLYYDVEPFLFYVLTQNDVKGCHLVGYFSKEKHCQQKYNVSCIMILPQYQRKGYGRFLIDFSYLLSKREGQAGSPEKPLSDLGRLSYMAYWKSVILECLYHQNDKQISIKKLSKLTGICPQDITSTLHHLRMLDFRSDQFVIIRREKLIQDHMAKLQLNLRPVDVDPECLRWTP
# Summary of the method: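 Recombinant KAT6A (488-778), 25 nM, was preincubated with compound (10-point dose response) for 60 or 10 min. It then reacted 120 min at room temperature with 200 nM biotin-H3(1-21) peptide and 400 nM acetyl-CoA, pH 8.0, with 330 nM TSA present. Acetylation was detected by AlphaLISA (anti-acetyl-lysine acceptor, streptavidin donor beads).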
# [2] = 60′ pre-incubation, Table 2, read-out: Kat6A biochemical assay: IC50
# [3] = 60′ pre-incubation, Table 3, read-out: Kat6A Biochemical assay: IC50
SMILES,EC50 (ZR-75-1) [µM],"IC50 [1, 2] [µM]","IC50 [1, 3] [µM]","IC50 ([1]; 10′ pre-incubation, Table 3, read-out: Kat6A Biochemical assay: IC50) [µM]"
"C=CS(=O)(=O)NCc1cnn(Cc2cc(OC)c3c(NS(=O)(=O)c4c(OC)cccc4OC)noc3c2)c1 [Synthetic Example 33, 2,6-dimethoxy-N-(4-methoxy-6-((4-(vinylsulfonamidomethyl)-1H-pyrazol-1-yl)methyl)benzo[d]isoxazol-3-yl)benzenesulfonamide]",≤ 10,≤ 10,,
"C#CC(=O)N1Cc2cnn(Cc3cc(OC)c4c(NS(=O)(=O)c5c(OC)cccc5OC)noc4c3)c2C1 [Synthetic Example 25A, 2,6-dimethoxy-N-(4-methoxy-6-((5-propioloyl-5,6-dihydropyrrolo[3,4-c]pyrazol-1(4H)-yl)methyl)benzo[d]isoxazol-3-yl)benzenesulfonamide]",≤ 10,≤ 10,,
"C#CC(=O)N1Cc2cnn(Cc3cc(OC)c4c(NS(=O)(=O)CC5CCCCC5)noc4c3)c2C1 [Synthetic Example 30A, 1-cyclohexyl-N-(4-methoxy-6-((5-propioloyl-5,6-dihydropyrrolo[3,4-c]pyrazol-1(4H)-yl)methyl)benzo[d]isoxazol-3-yl)methanesulfonamide]",≤ 10,≤ 10,,
"C=CS(=O)(=O)NCc1ccn(Cc2cc(OC)c3c(NS(=O)(=O)Cc4ccccc4)noc3c2)n1 [Synthetic Example 21, N-((1-((4-methoxy-3-((phenylmethyl)sulfonamido)benzo[d]isoxazol-6-yl)methyl)-1H-pyrazol-3-yl)methyl)ethenesulfonamide]",> 10,≤ 10,,
"C#CC(=O)NCc1cnn(Cc2cc(OC)c3c(NS(=O)(=O)c4ccccc4C(=O)O)noc3c2)c1 [Synthetic Example 37, 2-(N-(4-methoxy-6-((4-(propiolamidomethyl)-1H-pyrazol-1-yl)methyl)benzo[d]isoxazol-3-yl)sulfamoyl)benzoic acid]",≤ 10,≤ 10,,
"C#CC(=O)N1Cc2cn(Cc3cc(OC)c4c(NS(=O)(=O)c5c(OC)cccc5OC)noc4c3)nc2C1 [Synthetic Example 25B, 2,6-dimethoxy-N-(4-methoxy-6-((5-propioloyl-5,6-dihydropyrrolo[3,4-c]pyrazol-2(4H)-yl)methyl)benzo[d]isoxazol-3-yl)benzenesulfonamide]",> 10,≤ 10,,
"C#CC(=O)NCc1cnn(Cc2cc(OC)c3c(NS(=O)(=O)c4ccccc4OC)noc3c2)c1 [Synthetic Example 31, N-((1-((4-methoxy-3-((2-methoxyphenyl)sulfonamido)benzo[d]isoxazol-6-yl)methyl)-1H-pyrazol-4-yl)methyl) propiolamide]",≤ 10,≤ 10,,
"COc1cccc(OC)c1S(=O)(=O)Nc1noc2cc(-c3cccc(N4CCN(C(=O)CCl)CC4)c3)cc(OC)c12 [compound 73, N-(6-(3-(4-(2-chloroacetyl)piperazin-1-yl)phenyl)-4-methoxybenzo[d]isoxazol-3-yl)-2,6-dimethoxybenzenesulfonamide]",,,≤ 10,
"C#CC(=O)NCC(=O)NCc1cnn(Cc2cc(OC)c3c(NS(=O)(=O)c4ccccc4OC)noc3c2)c1 [Synthetic Example 60, N-(2-(((1-((4-methoxy-3-((2-methoxyphenyl)sulfonamido)benzo[d]isoxazol-6-yl)methyl)-1H-pyrazol-4-yl)methyl)amino)-2-oxoethyl)propiolamide]",,≤ 10,,
"C#CC(=O)NCCCOCc1cc(OC)c2c(NS(=O)(=O)c3cc(CC)ccc3OC)noc2c1 [compound 89, N-(3-((3-((5-ethyl-2-methoxyphenyl)sulfonamido)-4-methoxybenzo[d]isoxazol-6-yl)methoxy)propyl) propiolamide]",,,≤ 10,
"C#CC(=O)N1CCCN(c2cccc(-c3cc(OC)c4c(NS(=O)(=O)c5c(OC)cccc5OC)noc4c3)c2)CC1 [compound 100, 2,6-dimethoxy-N-(4-methoxy-6-(3-(4-propioloyl-1,4-diazepan-1-yl)phenyl)benzo[d]isoxazol-3-yl)benzenesulfonamide]",,,≤ 10,
"C=CC(=O)N1Cc2cnn(Cc3cc(OC)c4c(NS(=O)(=O)CC5CCCCC5)noc4c3)c2C1 [Synthetic Example 29A, N-(6-((5-acryloyl-5,6-dihydropyrrolo[3,4-c]pyrazol-1(4H)-yl)methyl)-4-methoxybenzo[d]isoxazol-3-yl)-1-cyclohexylmethanesulfonamide]",,≤ 10,,
"COc1cc(Cn2cccn2)cc2nnc(NS(=O)(=O)CC3CCCCC3)n12 [compound 127, N-(7-((1H-pyrazol-1-yl)methyl)-5-methoxy-[1,2,4]triazolo[4,3-a]pyridin-3-yl)-1-cyclohexylmethanesulfonamide]",,,,≤ 10
"C=CS(=O)(=O)NCc1cnn(Cc2cc(OC)c3c(NS(=O)(=O)c4ccccc4OC)noc3c2)c1 [Synthetic Example 32, 2-methoxy-N-(4-methoxy-6-((4-(vinylsulfonamidomethyl)-1H-pyrazol-1-yl)methyl)benzo[d]isoxazol-3-yl)benzenesulfonamide]",≤ 10,≤ 10,,

# Further lines, results first:
EC50 (ZR-75-1) [µM],"IC50 [1, 2] [µM]","IC50 [1, 3] [µM]","IC50 ([1]; 10′ pre-incubation, Table 3, read-out: Kat6A Biochemical assay: IC50) [µM]",SMILES
> 10,≤ 10,,,"C=CC(=O)NCc1ccn(Cc2cc(OC)c3c(NS(=O)(=O)Cc4ccccc4)noc3c2)n1 [Synthetic Example 20, N-((1-((4-methoxy-3-((phenylmethyl)sulfonamido)benzo[d]isoxazol-6-yl)methyl)-1H-pyrazol-3-yl)methyl)acrylamide]"
≤ 10,≤ 10,,,C=CS(=O)(=O)NCc1cnn(Cc2cc(OC)c3c(NS(=O)(=O)CC4CCCCC4)noc3c2)c1 [compound 6]
≤ 10,≤ 10,,,"C#CC(=O)N1Cc2cnn(Cc3cc(OC)c4c(NS(=O)(=O)c5ccccc5OC)noc4c3)c2C1 [Synthetic Example 26A, 2-methoxy-N-(4-methoxy-6-((5-propioloyl-5,6-dihydropyrrolo[3,4-c]pyrazol-1(4H)-yl)methyl)benzo[d]isoxazol-3-yl)benzenesulfonamide]"
≤ 10,≤ 10,,,"C#CC(=O)NCc1cnn(Cc2cc(OC)c3c(NS(=O)(=O)c4ccccc4C(=O)OC)noc3c2)c1 [Synthetic Example 36, methyl 2-(N-(4-methoxy-6-((4-(propiolamidomethyl)-1H-pyrazol-1-yl)methyl)benzo[d]isoxazol-3-yl)sulfamoyl)benzoate]"
≤ 10,≤ 10,,,"C#CC(=O)NCc1cnn(Cc2cc(OC3CC3)c3c(NS(=O)(=O)c4ccccc4OC)noc3c2)c1 [Synthetic Example 43, N-((1-((4-cyclopropoxy-3-((2-methoxyphenyl)sulfonamido)benzo[d]isoxazol-6-yl)methyl)-1H-pyrazol-4-yl)methyl)propiolamide]"
,≤ 10,,,"C=CC(=O)N(C)Cc1cnn(Cc2cc(OC)c3c(NS(=O)(=O)c4ccccc4OC)noc3c2)c1 [Synthetic Example 47, N-((1-((4-methoxy-3-((2-methoxyphenyl)sulfonamido)benzo[d]isoxazol-6-yl)methyl)-1H-pyrazol-4-yl)methyl)-N-methylacrylamide]"
,,≤ 10,,"C#CC(=O)N1CCC(c2cccc(-c3cc(OC)c4c(NS(=O)(=O)c5c(OC)cccc5OC)noc4c3)c2)C1 (stereo not shown) [compound 87, 2,6-dimethoxy-N-(4-methoxy-6-(3-(1-propioloylpyrrolidin-3-yl)phenyl)benzo[d]isoxazol-3-yl)benzenesulfonamide]"
